Reference: patent publication US20120029187A1, “HALOALKYLSULFONANILIDE DERIVATIVE” (Nissan Chemical Industries, Ltd., priority 2009, published 2012)

How the values were obtained:
Assay type in all cases: in vivo
[1] = test system: barnyardgrass; assay: Test Example 1: herbicidal effects in preemergence treatment under submerged conditions; conditions: dose 2.52 g/a
Procedure, shortened: (§1)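 Alluvial soil flooded to 4 cm depth; barnyardgrass, bulrush and ducksalad sown and 2.5-leaf rice seedlings transplanted. Same day, water-diluted emulsifiable concentrates applied to the water surface at set doses (g/a). Kept at 25–30 °C in greenhouse; effects scored 0–5 by mortality after three weeks.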

[2] = test system: bulrush; assay: as above; conditions: dose 2.52 g/a
Procedure, shortened: as §1

[3] = test system: ducksalad; assay: as above; conditions: dose 2.52 g/a
Procedure, shortened: as §1

[4] = test system: barnyardgrass; assay: Test Example 2: herbicidal effects during the vegetation period under submerged conditions; conditions: treatment during the vegetation period under submerged conditions; dose 2.52 g/a
Procedure, shortened: (§2)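 Barnyardgrass, bulrush and ducksalad were co-sown in alluvial soil flooded to 4 cm and grown in a greenhouse at 25 to 30° C. At the 1- or 2-leaf stage, water-diluted emulsifiable concentrates went onto the water surface at set doses (g/a). Herbicidal effect was scored three weeks later on a graded scale.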

[5] = test system: bulrush; assay: as above; conditions: treatment during the vegetation period under submerged conditions; dose 2.52 g/a
Procedure, shortened: as §2

[6] = test system: ducksalad; assay: as above; conditions: treatment during the vegetation period under submerged conditions; dose 2.52 g/a
Procedure, shortened: as §2

[7] = test system: Italian ryegrass; assay: Test Example 3: herbicidal effects in soil treatment
Procedure, shortened: (§3)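 Seeds were sown in sterilized diluvial soil and covered with about 1.5 cm of soil. Compounds, formulated as emulsifiable concentrates and diluted with water, were sprayed evenly over the soil surface at set doses in g/a. Herbicidal effect was scored on a rating scale three weeks later.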

[8] = test system: barnyardgrass; assay: as above
Procedure, shortened: as §3

[9] = test system: common chickweed; assay: as above
Procedure, shortened: as §3

[10] = test system: common lambsquater; assay: as above
Procedure, shortened: as §3

[11] = test system: common ragweed; assay: as above
Procedure, shortened: as §3

[12] = test system: giant foxtail; assay: as above
Procedure, shortened: as §3

[13] = test system: large crabgrass; assay: as above
Procedure, shortened: as §3

[14] = test system: redroot pigweed; assay: as above
Procedure, shortened: as §3

[15] = test system: velvetleaf; assay: as above; conditions: dose 3.2 g/a
Procedure, shortened: as §3

[16] = test system: water foxtail; assay: as above
Procedure, shortened: as §3

[17] = test system: wild oat; assay: as above
Procedure, shortened: as §3

[18] = test system: Italian ryegrass; assay: Test Example 4: herbicidal effect in foliage treatment; conditions: three weeks after application
Procedure, shortened: (§4)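 14-day greenhouse-grown plants (25–30° C) sprayed on foliage with diluted EC; dose as g/a; effect graded after 3 weeks.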

[19] = test system: barnyardgrass; assay: as above; conditions: three weeks after application
Procedure, shortened: as §4

[20] = test system: beadstraw; assay: as above; conditions: three weeks after application
Procedure, shortened: as §4

[21] = test system: common chickweed; assay: as above; conditions: three weeks after application
Procedure, shortened: as §4

[22] = test system: common lambsquater; assay: as above; conditions: three weeks after application
Procedure, shortened: as §4

[23] = test system: common ragweed; assay: as above; conditions: three weeks after application
Procedure, shortened: as §4

[24] = test system: giant foxtail; assay: as above; conditions: three weeks after application
Procedure, shortened: as §4

[25] = test system: large crabgrass; assay: as above; conditions: three weeks after application
Procedure, shortened: as §4

[26] = test system: posumbu knotweed; assay: as above; conditions: dose 3.2 g/a, three weeks after application
Procedure, shortened: as §4

[27] = test system: redroot pigweed; assay: as above; conditions: three weeks after application
Procedure, shortened: as §4

[28] = test system: velvetleaf; assay: as above; conditions: dose 3.2 g/a, three weeks after application
Procedure, shortened: as §4

[29] = test system: water foxtail; assay: as above; conditions: three weeks after application
Procedure, shortened: as §4

[30] = test system: wild oat; assay: as above; conditions: three weeks after application
Procedure, shortened: as §4

[31] = test system: transplanted rice; assay: Test Example 1: preemergence treatment under submerged conditions, effect on crop; conditions: dose 2.52 g/a
Procedure, shortened: as §1

For `CC1CN(Cc2ccccc2N(C(=O)OCCCl)S(=O)(=O)C(F)(F)F)C(=O)CO1` (stereo not shown) [Compound I-8], the “A: barnyardgrass, herbicidal effect (evaluation scale 0-5)” value [1] was 5 (mortality of 90% or above (nearly complete death)), the “B: bulrush, herbicidal effect (evaluation scale 0-5)” value (shortened to “B: bulrush, herbicidal effect”) [2] was 5 (mortality of 90% or above (nearly complete death)) and the “C: ducksalad, herbicidal effect (evaluation scale 0-5)” value (“C: ducksalad, herbicidal effect” for short) [3] was 5 (mortality of 90% or above (nearly complete death)). For the same compound, the “A: barnyardgrass, herbicidal effect (evaluation scale 0-5)” value [4] was 5 (mortality of 90% or above (nearly complete death)), the “B: bulrush, herbicidal effect” value [5] was 5 (mortality of 90% or above (nearly complete death)) and the “C: ducksalad, herbicidal effect” value [6] was 5 (mortality of 90% or above (nearly complete death)). The “H: Italian ryegrass, herbicidal effect (evaluation scale 0-5)” value ([7]; dose 3.2 g/a) was 5 (mortality of 90% or above (nearly complete death)), the “A: barnyardgrass, herbicidal effect (evaluation scale 0-5)” value ([8]; dose 3.2 g/a) was 5 (mortality of 90% or above (nearly complete death)) and the “N: common chickweed, herbicidal effect (evaluation scale 0-5)” value ([9]; dose 3.2 g/a) was 5 (mortality of 90% or above (nearly complete death)). For the same compound, the “L: common lambsquater, herbicidal effect (evaluation scale 0-5)” value ([10]; dose 3.2 g/a) was 3 (mortality of at least 40% and less than 70%), the “J: common ragweed, herbicidal effect (evaluation scale 0-5)” value ([11]; dose 3.2 g/a) was 5 (mortality of 90% or above (nearly complete death)) and the “E: giant foxtail, herbicidal effect (evaluation scale 0-5)” value ([12]; dose 3.2 g/a) was 4 (mortality of at least 70% and less than 90%). The “D: large crabgrass, herbicidal effect (evaluation scale 0-5)” value ([13]; dose 3.2 g/a) was 5 (mortality of 90% or above (nearly complete death)), the “K: redroot pigweed, herbicidal effect (evaluation scale 0-5)” value ([14]; dose 3.2 g/a) was 5 (mortality of 90% or above (nearly complete death)) and the “I: velvetleaf, herbicidal effect (evaluation scale 0-5)” value [15] was 5 (mortality of 90% or above (nearly complete death)). The “G: water foxtail, herbicidal effect (evaluation scale 0-5)” value ([16]; dose 3.2 g/a) was 5 (mortality of 90% or above (nearly complete death)), the “F: wild oat, herbicidal effect (evaluation scale 0-5)” value ([17]; dose 3.2 g/a) was 1 (mortality of at least 5% and less than 20%) and the “H: Italian ryegrass, herbicidal effect” value ([18]; dose 3.2 g/a) was 4 (mortality of at least 70% and less than 90%). The “A: barnyardgrass, herbicidal effect” value ([19]; dose 3.2 g/a) was 5 (mortality of 90% or above (nearly complete death)), the “O: beadstraw, herbicidal effect” value ([20]; dose 3.2 g/a) was 4 (mortality of at least 70% and less than 90%) and the “N: common chickweed, herbicidal effect” value ([21]; dose 3.2 g/a) was 3 (mortality of at least 40% and less than 70%). The “L: common lambsquater, herbicidal effect” value ([22]; dose 3.2 g/a) was 2 (mortality of at least 20% and less than 40%), the “J: common ragweed, herbicidal effect” value ([23]; dose 3.2 g/a) was 5 (mortality of 90% or above (nearly complete death)) and the “E: giant foxtail, herbicidal effect” value ([24]; dose 3.2 g/a) was 4 (mortality of at least 70% and less than 90%). For the same compound, the “D: large crabgrass, herbicidal effect” value ([25]; dose 3.2 g/a) was 4 (mortality of at least 70% and less than 90%), the “M: posumbu knotweed, herbicidal effect” value [26] was 5 (mortality of 90% or above (nearly complete death)) and the “K: redroot pigweed, herbicidal effect” value ([27]; dose 3.2 g/a) was 4 (mortality of at least 70% and less than 90%). For the same compound, the “I: velvetleaf, herbicidal effect” value [28] was 5 (mortality of 90% or above (nearly complete death)), the “G: water foxtail, herbicidal effect” value ([29]; dose 3.2 g/a) was 5 (mortality of 90% or above (nearly complete death)) and the “F: wild oat, herbicidal effect” value ([30]; dose 3.2 g/a) was 1 (mortality of at least 5% and less than 20%).
In the case of `CC(C)COC(=O)N(c1ccccc1CN1COC(C)(C)CC1=O)S(=O)(=O)C(F)(F)F` [II-26], the “A: barnyardgrass, herbicidal effect (evaluation scale 0-5)” value [1] was 5 (mortality of 90% or above (nearly complete death)), the “B: bulrush, herbicidal effect” value [2] was 5 (mortality of 90% or above (nearly complete death)) and the “C: ducksalad, herbicidal effect” value [3] was 5 (mortality of 90% or above (nearly complete death)). For the same compound, the “a: transplanted rice, effect on crop (evaluation scale 0-5)” value [31] was 0 (mortality of less than 5% (almost ineffective)), the “A: barnyardgrass, herbicidal effect (evaluation scale 0-5)” value [4] was 5 (mortality of 90% or above (nearly complete death)) and the “B: bulrush, herbicidal effect” value [5] was 5 (mortality of 90% or above (nearly complete death)). The “C: ducksalad, herbicidal effect” value [6] was 5 (mortality of 90% or above (nearly complete death)), the “H: Italian ryegrass, herbicidal effect (evaluation scale 0-5)” value ([7]; dose 6.3 g/a) was 3 (mortality of at least 40% and less than 70%) and the “A: barnyardgrass, herbicidal effect (evaluation scale 0-5)” value ([8]; dose 6.3 g/a) was 5 (mortality of 90% or above (nearly complete death)). The “N: common chickweed, herbicidal effect (evaluation scale 0-5)” value ([9]; dose 6.3 g/a) was 2 (mortality of at least 20% and less than 40%), the “L: common lambsquater, herbicidal effect (evaluation scale 0-5)” value ([10]; dose 6.3 g/a) was 0 (mortality of less than 5% (almost ineffective)) and the “J: common ragweed, herbicidal effect (evaluation scale 0-5)” value ([11]; dose 6.3 g/a) was 5 (mortality of 90% or above (nearly complete death)). The “E: giant foxtail, herbicidal effect (evaluation scale 0-5)” value ([12]; dose 6.3 g/a) was 4 (mortality of at least 70% and less than 90%), the “D: large crabgrass, herbicidal effect (evaluation scale 0-5)” value ([13]; dose 6.3 g/a) was 5 (mortality of 90% or above (nearly complete death)) and the “K: redroot pigweed, herbicidal effect (evaluation scale 0-5)” value ([14]; dose 6.3 g/a) was 0 (mortality of less than 5% (almost ineffective)). For the same compound, the “G: water foxtail, herbicidal effect (evaluation scale 0-5)” value ([16]; dose 6.3 g/a) was 5 (mortality of 90% or above (nearly complete death)), the “F: wild oat, herbicidal effect (evaluation scale 0-5)” value ([17]; dose 6.3 g/a) was 0 (mortality of less than 5% (almost ineffective)) and the “H: Italian ryegrass, herbicidal effect” value ([18]; dose 6.3 g/a) was 3 (mortality of at least 40% and less than 70%). For the same compound, the “A: barnyardgrass, herbicidal effect” value ([19]; dose 6.3 g/a) was 4 (mortality of at least 70% and less than 90%), the “O: beadstraw, herbicidal effect” value ([20]; dose 6.3 g/a) was 4 (mortality of at least 70% and less than 90%) and the “N: common chickweed, herbicidal effect” value ([21]; dose 6.3 g/a) was 3 (mortality of at least 40% and less than 70%). The “L: common lambsquater, herbicidal effect” value ([22]; dose 6.3 g/a) was 0 (mortality of less than 5% (almost ineffective)), the “J: common ragweed, herbicidal effect” value ([23]; dose 6.3 g/a) was 5 (mortality of 90% or above (nearly complete death)) and the “E: giant foxtail, herbicidal effect” value ([24]; dose 6.3 g/a) was 4 (mortality of at least 70% and less than 90%). For the same compound, the “D: large crabgrass, herbicidal effect” value ([25]; dose 6.3 g/a) was 4 (mortality of at least 70% and less than 90%), the “K: redroot pigweed, herbicidal effect” value ([27]; dose 6.3 g/a) was 0 (mortality of less than 5% (almost ineffective)) and the “G: water foxtail, herbicidal effect” value ([29]; dose 6.3 g/a) was 5 (mortality of 90% or above (nearly complete death)). The “F: wild oat, herbicidal effect” value ([30]; dose 6.3 g/a) was 0 (mortality of less than 5% (almost ineffective)).
